Earlier results on one molecule are cited in patent US20220312825A1 (priority 2021, published 2022).

For the series the following is noted: free base (non-protonated).

With `CN1CCCC1c1cccnc1` (stereo not shown) [Free-base nicotine, 3-(1-methyl-2-pyrrolidinyl) pyridine], the pKa value result was “about 8”.
